The subject of data set [1] is M. tb H37Ra::pTYOK. Format: cell-based, Mycobacterium tuberculosis. As to conditions: autoluminescent strain, >50% RLU inhibition on day 3.
A short description of data set [2]: Kinetic solubility (turbidimetry). Format: physicochemical. As to conditions: PBS pH 7.4, 1% DMSO, 25 °C.
The test system of data set [3] is M. bovis BCG. The data set can be described thus: microbe, parasite or virus in culture. Format: cell-based, Mycobacterium bovis BCG. As to conditions: for MIC99 / MIC50: Mycobacterium tuberculosis variant bovis BCG, BCG; for MIC50: read-out: MIC50 BCG; for increase in activity against M. bovis BCG compared to BGAz-001: fold, from MIC99.
The subject of data set [4] is C. glutamicum pks13. Description: MIC, resazurin assay, C. glutamicum pks13 deletion mutant. Type of data set: cell-based, Corynebacterium glutamicum. As to conditions: modified Gompertz function. On the technique in general: Resazurin is reduced to fluorescent resorufin, in cell work by metabolically active cells.
Data set [5] is described as follows: Caco-2 permeability and efflux. Format: in vitro ADME. As to conditions: human, pH 7.4, 2 h; for efflux ratio at 2 h, 10 μM: Caco-2, pH 7.4, 10 μM; for Papp B→A at 2 h, 10 μM: Caco-2, read-out: Caco-2 B-A Paap. The protocol:
Compounds were solubilized (10 mM in DMSO), and the CacoReady Kit from ReadyCell S.L. (Barcelona, Spain) was used to determine compound permeability. Differentiated and polarized Caco-2 cells (21-day system) were plated on a 96-transwell permeable system as a single monolayer to allow for automated high throughput screening of compounds, and 10 μM BGAz compound was added to the system in HBSS buffer (pH 7.4) and incubated for 2 h at 37 °C in a CO2 incubator. Lucifer yellow was used as a cell monolayer integrity marker. Drug transport was assessed in both directions [apical to basolateral (A-B) and basolateral to apical (B-A)] across the cell monolayer. […] The BGAz compound concentrations were quantified using a calibration curve following analysis by LC-MS/MS, and the apparent permeability coefficient (Papp) and efflux ratio of the compound across the monolayer were calculated. The efflux ratio is used as an indicator of active efflux. The permeability coefficient (Papp) was calculated from the following equation: [drawing 2] 2 where dQ/dt is the amount of compound in the basal (A-B) or apical (B-A) compartment as a function of time (nmol/s). C0 is the initial concentration in the donor (apical or basal) compartment (Mean of T = 0) (nmol/mL) and A is the area of the transwell (cm^2).
The efflux ratio was then calculated as [drawing 3] 3
All experiments were performed in triplicate, and the MDR1 efflux markers Digoxin, quinidine, and […] were used as positive controls.
In general terms: Caco-2 monolayers are a common model of the intestinal barrier.

For data set [6], the target named is hERG (Homo sapiens, UniProt Q12809). The data set can be described thus: in vitro. Format: cell-based. As to conditions: for IC50: CHO cells expressing hERG, eight-point curve. Here is the method:
Compounds were solubilized to 30 mM in DMSO before dilution in PBS to […]. […] Eight-point concentration–response curves were generated using 3.16-fold serial dilutions from the top test concentration. Electrophysiological recordings were made from a Chinese Hamster Ovary cell line stably expressing the full length hERG channel. Single cell ionic currents were measured in the perforated patch clamp configuration (100 μg mL^–1 amphotericin) at room temperature (21–23 °C) using an IonWorks Quattro instrument (Molecular Devices). The internal solution contained (mM) 140 KCl, 1 MgCl2, 1 EGTA, and 20 HEPES and was buffered to pH 7.3. The external solution [PBS contained (mM): 138 NaCl, 2.7 KCl, 0.9 CaCl2, 0.5 MgCl2, 8 Na2HPO4, and 1.5 KH2PO4 buffered to pH 7.4]. Cells were clamped at a holding potential of −70 mV for 30 s and then stepped to +40 mV for one second. This was followed by a hyperpolarising step of 1 s to −30 mV to evoke the hERG tail current. Currents were measured from the tail step and referenced to the holding current. Compounds were then incubated for 3–4 min prior to a second measurement of the hERG signal using an identical pulsetrain.
(In general: The hERG channel carries a current that helps repolarise heart muscle cells.)

Data set [7] concerns the target CYP2D6 (Homo sapiens, UniProt P10635). Description: biochemical. Format: in vitro ADME. As to conditions: human liver microsomes. Here is the method: (§1) Compounds were solubilized to 10 mM in DMSO. The BGAz compounds were incubated at concentrations of 0.003, 0.009, 0.03, 0.08, 0.25, 0.74, 2.2, 6.7, and 20 μM with CYP1A2, CYP2C9, CYP2C19, and CYP2D6 at 37 °C in the presence of the drug-like probe substrate […] the Phase 1 cofactor NADPH (1 mM). The formation of metabolites of the drug-like probe substrates in the absence and presence of the BGAz compound was monitored by LC-MS/MS, and the IC50 value was determined. All assays had two replicates per compound and included a positive control inhibitor.

Data set [8] deals with CYP2C19 (Homo sapiens, UniProt P33261). The data set can be described thus: biochemical. Type of data set: in vitro ADME. As to conditions: for CYP2C19 inhibition (in words) / IC50: human liver microsomes. The protocol: as §1
In data set [9] the target is CYP2C9 (Homo sapiens, UniProt P11712). Description: biochemical. Type of data set: in vitro ADME. As to conditions: for IC50: human liver microsomes. The protocol: as §1
Data set [10] can be described thus: Mouse microsomal clearance. As to conditions: 0.5 mg/mL mouse microsomes. Type of data set: in vitro ADME. Here is the method:
Compounds were solubilized (10 mM in DMSO). 1 μM of BGAz compound was incubated with 0.5 mg/mL mouse microsomes in the presence or absence of the Phase 1 cofactor NADPH (1 mM) at 37 °C for 0, 5, 10, 15, and 30 min. The disappearance of the BGAz compound was assessed by LC-MS/MS. All experiments were performed with two replicates per compound and were validated by the inclusion of up to three species-specific control compounds. Data output consists of mean intrinsic clearance (CLint) and half-life (t1/2) measurements.

[11] abbreviates: preincubated 30 min prior to NADPH, read-out: CYP2D6 [pre-inc] IC50.
Setting [12] is: without pre-incubation, read-out: CYP2D6 IC50.
The mark [13] stands for this setting: preincubated 30 min prior to NADPH, read-out: CYP2C19 [pre-inc] IC50.
The mark [14] stands for this setting: without pre-incubation, read-out: CYP2C19 IC50.
Where [15] appears, read: preincubated 30 min prior to NADPH, read-out: CYP2C9 [pre-inc] IC50.
Setting [16] is: without pre-incubation, read-out: CYP2C9 IC50.

In brackets after ≈: the same amount, converted by molar mass. Where two headings read alike, the source gives them in different places.

Chain of CYP2C19 (P33261 whole entry): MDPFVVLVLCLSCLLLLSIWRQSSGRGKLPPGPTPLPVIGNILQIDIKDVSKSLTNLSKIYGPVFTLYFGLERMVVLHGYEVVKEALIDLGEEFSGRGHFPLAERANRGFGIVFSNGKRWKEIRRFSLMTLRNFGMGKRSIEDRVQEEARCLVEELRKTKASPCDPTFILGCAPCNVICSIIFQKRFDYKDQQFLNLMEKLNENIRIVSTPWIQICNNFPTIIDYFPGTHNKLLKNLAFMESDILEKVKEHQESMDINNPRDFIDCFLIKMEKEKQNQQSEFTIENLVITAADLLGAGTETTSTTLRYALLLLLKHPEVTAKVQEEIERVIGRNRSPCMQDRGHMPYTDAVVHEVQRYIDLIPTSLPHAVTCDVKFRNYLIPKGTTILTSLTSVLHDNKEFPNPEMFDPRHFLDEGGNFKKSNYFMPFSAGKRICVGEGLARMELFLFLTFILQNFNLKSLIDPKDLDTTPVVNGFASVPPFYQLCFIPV
Chain of hERG (Q12809 whole entry): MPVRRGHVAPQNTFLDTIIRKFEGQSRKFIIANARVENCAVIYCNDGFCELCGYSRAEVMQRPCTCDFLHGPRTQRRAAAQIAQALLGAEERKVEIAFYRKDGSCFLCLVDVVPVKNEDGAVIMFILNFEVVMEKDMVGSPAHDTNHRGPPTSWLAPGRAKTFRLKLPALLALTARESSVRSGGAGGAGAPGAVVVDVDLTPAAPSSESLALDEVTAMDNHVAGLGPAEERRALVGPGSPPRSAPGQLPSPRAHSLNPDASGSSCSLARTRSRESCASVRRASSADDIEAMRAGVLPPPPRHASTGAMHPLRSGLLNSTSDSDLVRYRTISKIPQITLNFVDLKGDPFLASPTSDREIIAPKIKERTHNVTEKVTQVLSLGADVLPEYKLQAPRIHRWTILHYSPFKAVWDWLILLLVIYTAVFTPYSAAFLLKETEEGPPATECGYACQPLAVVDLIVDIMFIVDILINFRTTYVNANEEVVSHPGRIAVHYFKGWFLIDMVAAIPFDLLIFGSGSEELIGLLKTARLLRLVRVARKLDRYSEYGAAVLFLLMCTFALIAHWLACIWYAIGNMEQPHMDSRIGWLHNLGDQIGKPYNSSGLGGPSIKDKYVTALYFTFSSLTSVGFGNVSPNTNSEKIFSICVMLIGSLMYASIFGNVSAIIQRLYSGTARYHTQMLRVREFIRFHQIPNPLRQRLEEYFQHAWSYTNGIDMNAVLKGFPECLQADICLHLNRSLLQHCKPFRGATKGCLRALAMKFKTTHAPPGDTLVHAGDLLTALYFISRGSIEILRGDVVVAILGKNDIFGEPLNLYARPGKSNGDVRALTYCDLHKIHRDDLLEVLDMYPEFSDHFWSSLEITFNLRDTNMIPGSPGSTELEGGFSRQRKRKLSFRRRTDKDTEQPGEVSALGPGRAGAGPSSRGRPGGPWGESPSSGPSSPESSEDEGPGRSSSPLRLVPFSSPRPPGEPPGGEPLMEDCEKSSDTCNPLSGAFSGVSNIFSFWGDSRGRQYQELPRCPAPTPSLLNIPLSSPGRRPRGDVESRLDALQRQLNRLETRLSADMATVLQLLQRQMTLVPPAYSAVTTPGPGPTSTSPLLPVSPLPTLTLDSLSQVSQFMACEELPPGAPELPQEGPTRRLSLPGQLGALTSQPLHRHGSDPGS
Chain of CYP2D6 (P10635 whole entry): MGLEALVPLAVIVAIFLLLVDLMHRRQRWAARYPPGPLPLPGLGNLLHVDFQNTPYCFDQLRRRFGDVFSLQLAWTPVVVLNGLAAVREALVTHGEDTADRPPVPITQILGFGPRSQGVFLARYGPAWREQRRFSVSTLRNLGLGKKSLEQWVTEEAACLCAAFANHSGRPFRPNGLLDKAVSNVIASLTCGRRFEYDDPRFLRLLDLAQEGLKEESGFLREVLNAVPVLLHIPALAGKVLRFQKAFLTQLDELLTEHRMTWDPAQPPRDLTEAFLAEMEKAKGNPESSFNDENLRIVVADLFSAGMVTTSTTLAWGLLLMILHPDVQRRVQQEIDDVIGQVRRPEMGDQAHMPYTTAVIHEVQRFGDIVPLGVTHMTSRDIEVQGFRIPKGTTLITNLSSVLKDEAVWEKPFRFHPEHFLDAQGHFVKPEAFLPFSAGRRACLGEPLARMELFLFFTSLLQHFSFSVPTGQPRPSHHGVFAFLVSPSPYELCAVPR
Chain of CYP2C9 (P11712 whole entry): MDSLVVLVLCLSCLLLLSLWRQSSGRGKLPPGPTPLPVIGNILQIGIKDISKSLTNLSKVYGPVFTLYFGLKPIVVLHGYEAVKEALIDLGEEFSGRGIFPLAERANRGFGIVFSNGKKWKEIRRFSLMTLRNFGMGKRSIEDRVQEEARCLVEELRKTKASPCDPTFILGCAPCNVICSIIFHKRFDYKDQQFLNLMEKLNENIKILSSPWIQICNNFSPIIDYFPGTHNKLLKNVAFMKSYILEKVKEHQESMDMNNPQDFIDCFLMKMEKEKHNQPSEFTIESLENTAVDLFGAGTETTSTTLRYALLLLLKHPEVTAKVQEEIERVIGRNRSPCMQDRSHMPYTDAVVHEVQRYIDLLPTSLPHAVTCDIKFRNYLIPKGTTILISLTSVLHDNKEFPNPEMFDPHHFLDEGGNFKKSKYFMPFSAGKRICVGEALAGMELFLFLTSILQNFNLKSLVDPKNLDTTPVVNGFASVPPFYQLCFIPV

One may read the kinetic solubility as the concentration staying in solution when a stock, usually in DMSO, is diluted into the medium. As usually defined, the efflux ratio is the permeability from basolateral to apical divided by that in the opposite direction, in the common usage. What is called IC50 is the midpoint of a concentration-inhibition curve. Broadly, the microsomal CLint is a measure of how fast metabolising enzymes remove a compound, apart from limits set by blood flow. A lower microsomal CLint goes with slow turnover. Consider `FC(F)(F)Oc1ccc(C2CC(CN3CCCC3)N2Cc2ccccc2OC(F)(F)F)cc1` (centres unmarked) [BGAz-002], for which the “M. tb H37Ra::pTY OK MIClux50” value in [1] is on record as 9.2 μM. Besides, the kinetic solubility at 5 min in data set [2] was 57 µM (≈ 27 µg/mL). The MIC99 in data set [3] (read-out: BCG MIC99) and in data set [3] (read-out: MIC99 BCG) was 15 µM (≈ 7.12 µg/mL) each time. Also, in [3], the MIC50 was found to be 14 µM (≈ 6.64 µg/mL). Besides, the “increase in activity against M. bovis BCG compared to BGAz-001” value (shortened to “increase in activity”) in data set [3] is recorded as “approximately three- to four-fold increase”. The “C. glutamicum pks13 MIC” value in [4] was 50. Further, the efflux ratio at 2 h, 10 μM in data set [5] came to 1.2. For the same compound, the Papp B→A at 2 h, 10 μM in data set [5] stood at 28 nm/s. Further, the 50% inhibitory concentration (IC50) in data set [6] (human, CHO cells stably expressing hERG, pH 7.4) was over 167 µM; in data set [7] (setting [11]), 0.08 µM; in [7] (setting [12]), 0.19 µM; in data set [8] (setting [13]) it was over 20 µM; in data set [8] (setting [14]), over 20 µM; in data set [9] (setting [15]) it was over 20 µM. In addition, the half-maximal inhibitory concentration (IC50) in [9] (setting [16]) was over 20 µM. In addition, the inhibition at 167 µM in [6] (human, pH 7.4, 167 μM, read-out: hERG inhibition at top test concentration) is under 50%. Moreover, in data set [7], the “CYP2D6 inhibition (in words)” value is on record as “significant inhibition”. In data set [8], the “CYP2C19 inhibition (in words)” value is recorded as “negligible inhibition”. Moreover, the microsomal CLint at 1 μM in data set [10] was 166 µL/min/mg.

In the case of `Brc1cc(Br)cc(C2CC(CN3CCCC3)N2Cc2ccccc2Br)c1` (centres unmarked) [BGAz-004], in data set [1], the “M. tb H37Ra::pTY OK MIClux50” value turned out to be 7.03 μM. In addition, in data set [2], the solubility (kinetic) at 5 min was found to be 9 µM (≈ 4.89 µg/mL). Also, the MIC99 in data set [3] (read-out: BCG MIC99) and in data set [3] (read-out: MIC99 BCG) was 14 µM (≈ 7.6 µg/mL) throughout. Besides, the MIC50 in data set [3] was 15 µM (≈ 8.15 µg/mL). Besides, the “increase in activity” value in data set [3] is reported as “approximately three- to four-fold increase”. Moreover, the “C. glutamicum pks13 MIC” value in data set [4] amounted to 10. Besides, the efflux ratio at 2 h, 10 μM in [5] is 1.4. Further, the Papp B→A at 2 h, 10 μM in [5] worked out at 5 nm/s. For the same compound, the half-maximal inhibitory concentration (IC50) in data set [6] is 25 µM; in data set [7] (setting [11]) it was 1.05 µM; in [7] (setting [12]), 1.97 µM; in [8] (setting [13]), 2.04 µM; in data set [8] (setting [14]) it was over 15.1 µM; in [9] (setting [15]), 17.8 µM. Moreover, in data set [9] (setting [16]), the IC50 was over 20 µM. For the same compound, the “CYP2D6 inhibition (in words)” value in data set [7] is “significant inhibition”. Moreover, the “CYP2C19 inhibition (in words), preincubated” value in data set [8] (preincubated for 30 min prior to initiation of catalysis) was “strong inhibitory activity”. Besides, the “CYP2C9 inhibition (in words)” value in data set [9] (preincubated for 30 min prior to the addition of NADPH) was “minimal CYP2C9 inhibition”. In data set [10], this compound gave a microsomal CLint at 1 μM of 192 µL/min/mg.

Turning to `CNCC1CC(c2ccc(OC(F)(F)F)cc2)N1Cc1ccccc1OC(F)(F)F` (centres unmarked) [BGAz-005], in data set [1], the “M. tb H37Ra::pTY OK MIClux50” value was 4.5 μM. Moreover, in [2], the kinetic solubility at 5 min came to 117 µM (≈ 50.8 µg/mL). Further, the MIC99 in data set [3] (read-out: BCG MIC99) and in [3] (read-out: MIC99 BCG) was 21 µM (≈ 9.12 µg/mL) throughout. Moreover, the MIC50 in data set [3] stood at 20 µM (≈ 8.69 µg/mL). Also, in data set [3], the “increase in activity” value is “approximately three-fold increase”. Besides, the “C. glutamicum pks13 MIC” value in [4] is recorded as 10. For the same compound, the efflux ratio at 2 h, 10 μM in data set [5] was under 1. Also, in data set [5], the Papp B→A at 2 h, 10 μM turned out to be 14 nm/s. Moreover, the half-maximal inhibitory concentration (IC50) in data set [6] was 12.7 µM; in data set [7] (setting [11]), 0.01 µM; in [7] (setting [12]) it was 0.06 µM; in [8] (setting [13]), 15.8 µM; in data set [8] (setting [14]) it was over 20 µM; in data set [9] (setting [15]), over 20 µM. The half-maximal inhibitory concentration (IC50) in data set [9] (setting [16]) was over 20 µM. In addition, in [7], the “CYP2D6 inhibition (in words)” value is given as “significant inhibition”. For the same compound, the “CYP2C19 inhibition (in words)” value in [8] is recorded as “negligible inhibition”. In addition, the intrinsic metabolic clearance (microsomal CLint) at 1 μM in data set [10] worked out at 36 µL/min/mg.

(Values after publication PMC10895678 (Journal of Medicinal Chemistry, 2024).)
